In patent US20170334899A1, “AMINO-SUBSTITUTED ISOTHIAZOLES” (Bayer Pharma Aktiengesellschaft, priority 2014, published 2017) one finds IC50 data, which are given here for eleven compounds.

Common to all, as to assay type: cell-based
Experiment [1] concerns human cervical tumor cell line HeLa (ATCC CCL-2). The experiment in a line: SAC-Formation - Paclitaxel-Induced Assay. To be noted: Homo sapiens, HeLa, 24 h, HeLa cells, paclitaxel 0.05 μM, test range 0.005 μM-20 μM, read-out: IC50 [mol/l] SAC-Formation - Paclitaxel-Induced Assay. The source says:
(§1) The spindle assembly checkpoint assures the proper segregation of chromosomes during mitosis. Upon entry into mitosis, chromosomes begin to condensate which is accompanied by the phosphorylation of histone H3 on serine 10. Dephosphorylation of histone H3 on serine 10 begins in anaphase and ends at early telophase. Accordingly, phosphorylation of histone H3 on serine 10 can be utilized as a marker of cells in mitosis. Nocodazole is a microtubule destabilizing substance. Paclitaxel is a microtubule stabilizing compound. Thus, nocodazole as well as paclitaxel interfere with microtubule dynamics and mobilize the spindle assembly checkpoint. […] The mitotic breakthrough can be detected by the decrease of cells with phosphorylation of histone H3 on serine 10. This decline is used as a marker to determine the capability of compounds of the present invention to induce a mitotic breakthrough. The typical morphological alteration of nuclei with a prematurely completed mitosis after SAC-inhibition can be monitored via image analysis routines supporting those findings.
(§2) The nocodazole and paclitaxel variations were used to focus on compounds that are capable of inhibiting a SAC induced by both microtubule destabilization as well as microtubule stabilization. When SAC inducing agents and compounds are given simultaneously inhibitors that effectively block the SAC during formation or abrogation are identified. When cells are incubated with a SAC inducing agent and the SAC interfering compound is given after a defined time, inhibitors are identified that effectively block SAC abrogation.
Cultivated cells of the human cervical tumor cell line HeLa (ATCC CCL-2) were plated at a density of 1000 cells/well in a 1536-well microtiter plate in 2 μl PAA
(§3) Ham's F12 Medium supplemented with 1% (v/v) glutamine, 1% (v/v) penicillin, 1% (v/v) streptomycin and 10% (v/v) fetal calf serum. After incubation overnight at 37° C., 10 μl/well paclitaxel at a final concentration of 0.05 μM were added to cells. Test compounds solubilized in dimethyl sulfoxide (DMSO) were added at various concentrations (0 μM, as well as in the range of 0.005 μM -20 μM; the final concentration of the solvent DMSO was 0.5% (v/v)). Cells were incubated for 24 h at 37° C. in the presence of test compounds in combination with paclitaxel. Thereafter, cells were fixed in 4% (v/v) paraformaldehyde in phosphate buffered saline (PBS) at 4° C. overnight then permeabilized in 0.1% (v/v) Triton X™ 100 in PBS at room temperature for 20 min and blocked in 0.5% (v/v) bovine serum albumin (BSA) in PBS at room temperature for 15 min. After washing with PBS, 5 μl/well antibody solution (anti-phospho-histone H3 clone 3H10, FITC; Millipore, Cat#16-222; 1:1000 dilution) was added to cells, which were incubated for 2 h at room temperature. Afterwards, cells were washed with PBS and 5 μl/well solution of HOECHST 33342 dye (5 μg/ml) was added to cells and cells were incubated 15 min at room temperature in the dark. Cells were washed twice with PBS then covered with PBS and stored at 4° C. until analysis. Images were acquired with a PERKIN ELMER OPERA™ High-Content Analysis reader. Images were analyzed with image analysis software MetaXpress™ from Molecular devices utilizing the Mitotic Index application module. In this assay both labels HOECHST 33342 and phosphorylated Histone H3 on serine 10 were measured. HOECHST 33342 labels the DNA and is used to count the cell number. The staining of phosphorylated Histone H3 on serine 10 determines the number of mitotic cells. […] Otherwise cells were arrested at G2/M phase of the cell cycle progression. The raw assay data were further analyzed by four-parametric hill equation using Genedata's Assay Analyzer and Condoseo software.

Experiment [2] relates to HeLa. The experiment in a line: Proliferation assay (crystal violet), HeLa. To be noted: Homo sapiens, HeLa, 96 h, HeLa cells; 4 days incubation; crystal violet staining; read-out: IC50 inhibition of proliferation, HeLa. The procedure:
Cultivated tumor cells (cells were ordered from ATCC, except HeLa-MaTu and HeLa-MaTu-ADR, which were ordered from EPO-GmbH, Berlin) were plated at a density of 1000 to 5000 cells/well, depending on the growth rate of the respective cell line, in a 96-well multititer plate in 200 μL of their respective growth medium supplemented 10% fetal calf serum. After 24 hours, the cells of one plate (zero-point plate) were stained with crystal violet (see below), while the medium of the other plates was replaced by fresh culture medium (200 μl), to which the test substances were added in various concentrations (0 μM, as well as in the range of 0.001-10 μM; the final concentration of the solvent dimethyl sulfoxide was 0.5%). The cells were incubated for 4 days in the presence of test substances. Cell proliferation was determined by staining the cells with crystal violet: the cells were fixed by adding 20 μl/measuring point of an 11% glutaric aldehyde solution for 15 minutes at room temperature. After three washing cycles of the fixed cells with water, the plates were dried at room temperature. The cells were stained by adding 100 μl/measuring point of a 0.1% crystal violet solution (pH 3.0). After three washing cycles of the stained cells with water, the plates were dried at room temperature. The dye was dissolved by adding 100 μl/measuring point of a 10% acetic acid solution. Absorbtion was determined by photometry at a wavelength of 595 nm. The change of cell number, in percent, was calculated by normalization of the measured values to the aborbtion values of the zero-point plate (=0%) and the absorbtion of the untreated (0 μm) cells (=100%). The IC50 values were determined by means of a 4 parameter fit.

Experiment [3] has as its system human cervical tumor cell line HeLa (ATCC CCL-2). Briefly: SAC-Formation - Nocodazole-Induced Assay. Conditions: Homo sapiens, HeLa, 24 h, HeLa cells, nocodazole 0.1 μg/ml together with test compound, decrease of mitotic cells (phospho-histone H3 Ser10).
Text: as §1, §2
as §3, with “Cultivated cells of the human cervical tumor cell line HeLa (ATCC CCL-2) were plated at a density of 1000 cells/well in a 1536-well microtiter plate in 2 μl PAA Ham's” for “Ham's”, “nocodazole” for “paclitaxel”, “0.1 μg/ml” for “0.05 μM”, “μM-20” for “μM -20”, “nocodazole.” for “paclitaxel.”

Turning to `Cc1nsc(Nc2cnc3ccccc3n2)c1C(=O)Nc1cccc(C(=O)N(C)CCc2ccncc2)c1` [Example 82, 3-Methyl-N-(3-{methyl[2-(pyridin-4-yl)ethyl]carbamoyl}-phenyl)-5-(quinoxalin-2-ylamino)-1,2-thiazole-4-carboxamide], the values for the IC50 in experiment [1], in experiment [2] and in experiment [3] were 14 µM, 10 µM and 3.7 µM, respectively.
Consider `Cc1nsc(Nc2cnc3ccccc3n2)c1C(=O)Nc1cccc(C(=O)N2CCCN(C)CC2)c1` [Example 83, 3-Methyl-N-{3-[(4-methyl-1,4-diazepan-1-yl)carbonyl]-phenyl}-5-(quinoxalin-2-ylamino)-1,2-thiazole-4-carboxamide], for which the results for the IC50 in experiment [1], in experiment [2] and in experiment [3] were 0.94 µM, 10 µM and 0.05 µM, respectively.
Taken in the same sequence, the figures for `CC(=O)Nc1ccccc1NC(=O)c1cccc(NC(=O)c2c(C)nsc2Nc2cnc3ccccc3n2)c1` [Example 84, N-(3-{[2-(Acetylamino)phenyl]carbamoyl}phenyl)-3-methyl-5-(quinoxalin-2-ylamino)-1,2-thiazole-4-carboxamide] were 8.4 µM, 10 µM and 0.096 µM.
Taken in the same sequence, the figures for `COCCCNC(=O)c1cccc(NC(=O)c2c(C)nsc2Nc2cnc3ccccc3n2)c1` [Example 85, N-{3-[(3-Methoxypropyl)carbamoyl]phenyl}-3-methyl-5-(quinoxalin-2-ylamino)-1,2-thiazole-4-carboxamide] were 0.97 µM, 8.9 µM and 0.018 µM.
On to `CC(=O)N[C@H]1CCN(C(=O)c2cccc(NC(=O)c3c(C)nsc3Nc3cnc4ccccc4n3)c2)C1` [Example 86, N-(3-{[(3S)-3-(acetylamino)pyrrolidin-1-yl]carbonyl}-phenyl)-3-methyl-5-(quinoxalin-2-ylamino)-1,2-thiazole-4-carboxamide], for which the figures for the IC50 in experiment [1], in experiment [2] and in experiment [3] were 13 µM, 10 µM and 3.2 µM, respectively.
As for `Cc1nsc(Nc2cnc3ccccc3n2)c1C(=O)Nc1cccc(C(=O)N2CCN(c3cccc(F)c3)CC2)c1` [Example 87, N-(3-{[4-(3-Fluorophenyl)piperazin-1-yl]carbonyl}phenyl)-3-methyl-5-(quinoxalin-2-ylamino)-1,2-thiazole-4-carboxamide], the IC50 in experiment [1] is 1.5 µM; in experiment [2] it was 4.5 µM; in experiment [3], 0.39 µM.
In the case of `Cc1nsc(Nc2cnc3ccccc3n2)c1C(=O)Nc1cccc(C(=O)N2CCN(C(=O)c3ccccc3)CC2)c1` [Example 88, N-{3-[(4-Benzoylpiperazin-1-yl)carbonyl]phenyl}-3-methyl-5-(quinoxalin-2-ylamino)-1,2-thiazole-4-carboxamide], the IC50 in experiment [1] was determined as 0.48 µM; in experiment [2], 10 µM; in experiment [3], 0.031 µM.
As to `Cc1nsc(Nc2cnc3ccccc3n2)c1C(=O)Nc1cccc(C(=O)N2CCN(C(=O)N(C)C)CC2)c1` [Example 89, N,N-Dimethyl-4-[3-({[3-methyl-5-(quinoxalin-2-ylamino)-1,2-thiazol-4-yl]carbonyl}amino)benzoyl]piperazine-1-carboxamide], the IC50 was determined as 11 µM in experiment [1], 10 µM in experiment [2] and 2.9 µM in experiment [3].
In the same order, the values of `Cc1nsc(Nc2cnc3ccccc3n2)c1C(=O)Nc1cccc(C(=O)N2CCN(CCN(C)C)CC2)c1` [Example 90, N-[3-({4-[2-(Dimethylamino)ethyl]piperazin-1-yl}carbonyl)-phenyl]-3-methyl-5-(quinoxalin-2-ylamino)-1,2-thiazole-4-carboxamide] are 17 µM, 10 µM and 0.79 µM.
Taken in the same sequence, the figures for `COCCN1CCN(C(=O)c2cccc(NC(=O)c3c(C)nsc3Nc3cnc4ccccc4n3)c2)CC1` [Example 91, N-(3-{[4-(2-Methoxyethyl)piperazin-1-yl]carbonyl}phenyl)-3-methyl-5-(quinoxalin-2-ylamino)-1,2-thiazole-4-carboxamide] were 0.23 µM, 10 µM and 0.042 µM.
In the same order, the values of `Cc1nsc(Nc2cnc3ccccc3n2)c1C(=O)Nc1cccc(C(=O)N2CCN(CC(=O)N(C)C)CC2)c1` [Example 92, N-[3-({4-[2-(Dimethylamino)-2-oxoethyl]piperazin-1-yl}-carbonyl)phenyl]-3-methyl-5-(quinoxalin-2-ylamino)-1,2-thiazole-4-carboxamide] are 20 µM, 10 µM and 0.94 µM.
